Structures are written as SMILES.

Chain of Ubiquitin carboxyl-terminal hydrolase 1/WD repeat-containing protein 48 (O94782 whole entry): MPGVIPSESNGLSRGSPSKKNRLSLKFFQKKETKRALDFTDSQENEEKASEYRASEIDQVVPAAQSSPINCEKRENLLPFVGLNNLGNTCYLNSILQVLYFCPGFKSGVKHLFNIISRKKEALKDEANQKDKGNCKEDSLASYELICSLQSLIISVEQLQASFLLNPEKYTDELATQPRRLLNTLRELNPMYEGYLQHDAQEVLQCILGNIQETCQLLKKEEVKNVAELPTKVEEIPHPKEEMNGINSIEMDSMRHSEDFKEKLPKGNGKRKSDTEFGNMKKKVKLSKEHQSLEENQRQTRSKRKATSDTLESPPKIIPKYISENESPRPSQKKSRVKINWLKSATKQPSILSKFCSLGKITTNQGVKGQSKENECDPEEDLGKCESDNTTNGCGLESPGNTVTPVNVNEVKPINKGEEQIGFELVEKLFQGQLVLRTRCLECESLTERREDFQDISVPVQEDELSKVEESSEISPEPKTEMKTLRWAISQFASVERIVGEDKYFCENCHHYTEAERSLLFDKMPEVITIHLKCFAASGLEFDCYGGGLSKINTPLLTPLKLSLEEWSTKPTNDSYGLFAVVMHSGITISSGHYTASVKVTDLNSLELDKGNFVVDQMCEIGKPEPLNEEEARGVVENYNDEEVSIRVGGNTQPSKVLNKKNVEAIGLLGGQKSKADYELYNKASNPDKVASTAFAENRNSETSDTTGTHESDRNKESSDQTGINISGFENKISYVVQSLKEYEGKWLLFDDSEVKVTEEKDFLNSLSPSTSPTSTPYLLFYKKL
Chain of Ubiquitin carboxyl-terminal hydrolase 1/WD repeat-containing protein 48 (Q8TAF3 whole entry): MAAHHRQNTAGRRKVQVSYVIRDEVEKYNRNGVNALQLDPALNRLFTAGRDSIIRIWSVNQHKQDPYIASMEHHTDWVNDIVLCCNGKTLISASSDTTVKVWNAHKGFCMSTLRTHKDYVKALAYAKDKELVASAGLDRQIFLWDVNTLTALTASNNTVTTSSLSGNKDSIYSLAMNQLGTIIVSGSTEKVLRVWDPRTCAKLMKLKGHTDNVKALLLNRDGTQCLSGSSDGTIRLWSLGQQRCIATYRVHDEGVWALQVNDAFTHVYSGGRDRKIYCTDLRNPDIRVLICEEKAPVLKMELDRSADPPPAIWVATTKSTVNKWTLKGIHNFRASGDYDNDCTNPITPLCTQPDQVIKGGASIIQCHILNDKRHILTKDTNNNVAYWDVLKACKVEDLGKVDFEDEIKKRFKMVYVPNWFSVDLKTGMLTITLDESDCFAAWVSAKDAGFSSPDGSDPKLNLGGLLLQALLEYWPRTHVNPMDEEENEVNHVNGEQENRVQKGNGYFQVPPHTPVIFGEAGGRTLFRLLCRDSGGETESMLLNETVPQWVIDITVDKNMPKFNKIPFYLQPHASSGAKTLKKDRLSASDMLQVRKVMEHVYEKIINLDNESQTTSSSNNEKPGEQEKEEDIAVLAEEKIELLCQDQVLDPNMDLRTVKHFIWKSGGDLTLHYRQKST

The target of the test is Ubiquitin carboxyl-terminal hydrolase 1/WD repeat-containing protein 48 (Homo sapiens, UniProt O94782+Q8TAF3). Put plainly: In Vitro USP1  Inhibitory Activity. The procedure:
Experimental Methods1) Preparation of 1× assay buffer: 1× assay buffer (modified Tris buffer) was prepared;2) Compound dilution: The compound was transferred to the assay plate by Echo.
For `COc1cnc(-c2ccccc2C(C)C)nc1N(C)Cc1ccc(-c2ccccn2)cc1` [US20250289799, Example 1], the half-inhibitory concentration (IC50) came out at 26 nM.

As for `COc1cnc(-c2ccccc2C(C)C)nc1N(C)CC1CCN(c2ccccn2)CC1` [US20250289799, Example 2], the concentration for half-maximal inhibition (IC50) was determined as 14 nM. For `COc1cnc(-c2ccccc2C(C)C)nc1N(C)Cc1ccc(-c2nc(C(F)(F)F)cn2C)cc1` [US20250289799, Example 3] the value was 2.8 nM; for `COc1cnc(-c2ccccc2C(C)C)nc1NCc1ccc(-c2nc(C(F)(F)F)cn2C)cc1` [US20250289799, Example 4], 1.2 nM; for `COc1cnc(-c2ccccc2C(C)C)nc1NCC1CCN(c2ccccn2)CC1` [US20250289799, Example 5], 7.6 nM.

As for `COc1cnc(-c2ccccc2C(C)C)nc1NCc1ccc(-n2nc(C(F)(F)F)cc2C)cc1` [US20250289799, Example 7], inhibition was half-maximal at 4.5 nM (IC50). For `COc1cnc(-c2c(OC)ncnc2C2CC2)nc1N(C)Cc1ccc(-c2nc(C(F)(F)F)cn2C)cc1` [US20250289799, Example 8] the value was 1.4 nM; for `COc1ncnc(C2CC2)c1-c1ncc2c(n1)N(Cc1ccc(-c3ccccn3)cc1)CCO2` [US20250289799, Example 9], 35 nM; for `COc1ncnc(C2CC2)c1-c1ncc2c(n1)N(CC1CCN(c3ccccn3)CC1)CCO2` [US20250289799, Example 10], 564 nM. With `COc1cnc(-c2ccccc2C(C)C)nc1NCc1ccc(-c2nccn3ccnc23)cc1` [US20250289799, Example 11] the figure was 22 nM. In turn, `Cc1cc(C(F)(F)F)nn1-c1ccc(CN2C(=O)COc3cnc(-c4ccccc4C(C)C)nc32)cc1` [US20250289799, Example 15] had an IC50 of 6.8 nM.

Turning to `CC(C)c1ccccc1-c1ncc(C(F)(F)F)c(NCc2ccc(-c3nc(C(F)(F)F)cn3C)cc2)n1` [US20250289799, Example 17], the 50% inhibitory concentration (IC50) was 3.9 nM. For `COc1cnc(-c2c(OC)ncnc2C2CC2)nc1N(C)Cc1ccc(-c2ccccn2)cc1` [US20250289799, Example 19] the value was 24 nM; for `COc1ncnc(C2CC2)c1-c1ncc2c(n1)N(CC1CCN(c3nc(C(F)(F)F)cn3C)CC1)CCO2` [US20250289799, Example 20], 91.5 nM.

For the molecule `CC(C)c1ccccc1-c1ncc2c(n1)N(CC1CCN(c3nc(C(F)(F)F)cn3C)CC1)C(=O)CO2` [US20250289799, Example 24], the IC50 came to 8.8 nM.

Consider `CC(C)c1ccccc1-c1ncc(C(F)(F)F)c(NCC2CCN(c3nc(C(F)(F)F)cn3C)CC2)n1` [US20250289799, Example 25], for which the IC50 turned out to be 3.7 nM.

As for `COc1cnc(-c2c(OC)ncnc2C2CC2)nc1NCc1ccc(-n2nc(C(F)(F)F)cc2C)cc1` [US20250289799, Example 26], the concentration for half-maximal inhibition (IC50) was 4.6 nM. Consider `COc1cnc(-c2c(OC)ncnc2C2CC2)nc1NCc1ccc(-c2nc(C(F)(F)F)cn2C)cc1` [US20250289799, Example 29], for which the IC50 came to 4.8 nM. For `COc1ncnc(C2CC2)c1-c1ncc2c(n1)N(CC1CCN(c3nc(C(F)(F)F)cn3C)CC1)C(=O)CO2` [US20250289799, Example 30], the half-maximal inhibitory concentration (IC50) was found to be 37 nM. `CC(C)c1ccccc1-c1nc(NCc2ccc(-c3ccccn3)cc2)c2occc2n1` [US20250289799, Example 32] yielded a concentration for half-maximal inhibition (IC50) of 2.8 nM. For `CC(C)c1ccccc1-c1nc(NCc2ccc(-c3nc(C(F)(F)F)cn3C)cc2)c2occc2n1` [US20250289799, Example 33] the value was 1.2 nM. With `COc1ncnc(C2CC2)c1-c1nc(NCc2ccc(-c3nc(C(F)(F)F)cn3C)cc2)c2occc2n1` [US20250289799, Example 35] the figure was 9.6 nM.

Turning to `CC(C)c1ccccc1-c1nc(NCc2ccc(-c3ccccn3)cc2)c2[nH]ccc2n1` [US20250289799, Example 36], the IC50 turned out to be 22.4 nM. For `COc1ncnc(C2CC2)c1-c1nc(NCc2ccc(-c3ccccn3)cc2)c2[nH]ccc2n1` [US20250289799, Example 37] the value was 51 nM; for `CC(C)c1ccccc1-c1nc(NCc2ccc(-c3nc(C(F)(F)F)cn3C)cc2)c2ncccc2n1` [US20250289799, Example 40], 2.3 nM; for `COc1cnc(-c2ccccc2C(C)C)nc1NCc1ccc2c(c1)CN(C1CCC(=O)NC1=O)C2=O` (stereo not given) [US20250289799, Example 41], 1260 nM.

The molecule `COc1ncnc(C2CC2)c1-c1nc(NCc2ccc(-n3nc(C(F)(F)F)cc3C)cc2)c2occc2n1` [US20250289799, Example 50] displayed an IC50 of 5.2 nM. `Cc1cc(C(F)(F)F)nn1-c1ccc(CNc2nc(-c3ccccc3C(C)C)nc3ccoc23)cc1` [US20250289799, Example 57]: the IC50 is 4.4 nM. For `COc1cnc(-c2ccccc2C(C)C)nc1N(C)CC1CCC(c2ccccn2)CC1` (stereo not given) [US20250289799, Example 61] the value was 11 nM; for `COc1cnc(-c2ccccc2C(C)C)nc1N(C)CC1CCN(c2nc(C(F)(F)F)cn2C)CC1` [US20250289799, Example 62], 2.1 nM; for `COc1cnc(-c2ccccc2C(C)C)nc1NCC1CCC(c2ccccn2)CC1` (stereo not given) [US20250289799, Example 63], 3.3 nM.

The molecule `COc1cnc(-c2ccccc2C(C)C)nc1NCc1ccc(-c2ccccn2)cc1` [US20250289799, Example 64] gave a 50% inhibitory concentration (IC50) of 3.7 nM. The molecule `COc1cnc(-c2ccccc2C(C)C)nc1NCC1CCN(c2nc(C(F)(F)F)cn2C)CC1` [US20250289799, Example 65] yielded a concentration for half-maximal inhibition (IC50) of 2.1 nM. For the molecule `COc1cnc(-c2ccccc2C(C)C)nc1NCc1ccc(-c2ccc(C)cn2)cc1` [US20250289799, Example 66], the concentration for half-maximal inhibition (IC50) came to 5.6 nM. As for `COc1cnc(-c2ccccc2C(C)C)nc1NCc1ccc(OCc2ccccn2)cc1` [US20250289799, Example 67], the IC50 amounted to 5.3 nM. In turn, `CCOCCOc1ccc(CNc2nc(-c3ccccc3C(C)C)ncc2OC)cc1` [US20250289799, Example 68] came in with an IC50 of 3.2 nM. With `COc1cc(CNc2nc(-c3ccccc3C(C)C)ncc2OC)ccc1-n1nc(C(F)(F)F)cc1C` [US20250289799, Example 69] the figure was 9.2 nM; with `CC(C)Oc1cnc(-c2ccccc2C(C)C)nc1N(C)CC1CCN(c2nc(C(F)(F)F)cn2C)CC1` [US20250289799, Example 70], 19.4 nM; with `CC(C)Oc1cnc(-c2ccccc2C(C)C)nc1N(C)Cc1ccc(-c2nc(C(F)(F)F)cn2C)cc1` [US20250289799, Example 71], 9.9 nM.

Regarding `CC(C)Oc1cnc(-c2ccccc2C(C)C)nc1NCC1CCN(c2nc(C(F)(F)F)cn2C)CC1` [US20250289799, Example 72], the IC50 was found to be 6.1 nM. `CC(C)Oc1cnc(-c2ccccc2C(C)C)nc1NCc1ccc(-c2nc(C(F)(F)F)cn2C)cc1` [US20250289799, Example 73] returned an IC50 of 3.6 nM. On to `CC(C)Oc1cnc(-c2ccccc2C(C)C)nc1NCC12CCC(c3ccc(C(F)(F)F)cn3)(CC1)CC2` [US20250289799, Example 74], for which half-maximal inhibition (IC50) was put at 873 nM. The molecule `CC(C)c1ccccc1-c1ncc(C(F)(F)F)c(NCC2CCN(c3nc(C(F)(F)F)cn3C)CC2)n1` [US20250289799, Example 75] came in with a concentration for half-maximal inhibition (IC50) of 3.7 nM.

In turn, `CC(C)c1ccccc1-c1ncc(C(F)(F)F)c(NCC2CCN(c3ccccn3)CC2)n1` [US20250289799, Example 76] gave an IC50 of 30.1 nM. For `CC(C)c1ccccc1-c1nc(NCc2ccc3c(c2)CCN(C)C3=O)c2occc2n1` [US20250289799, Example 77] the value was 28 nM. Molecule `CC(C)c1ccccc1-c1nc(NCc2ccc3c(c2)CCN(C(C)C)C3=O)c2occc2n1` [US20250289799, Example 78] registered a half-maximal inhibitory concentration (IC50) of 6.4 nM. With `CCOCCOc1ccc(CNc2nc(-c3ccccc3C(C)C)nc3ccoc23)cc1` [US20250289799, Example 79] the figure was 4.5 nM; with `COC1CC(Oc2ccc(CNc3nc(-c4ccccc4C(C)C)nc4ccoc34)cc2)C1` (stereo not given) [US20250289799, Example 80], 26 nM.

`COc1cc(-c2nc(C(F)(F)F)cn2C)ccc1CNc1nc(-c2ccccc2C(C)C)nc2ccoc12` [US20250289799, Example 81] displayed an IC50 of 3.7 nM. With `COc1cc(CNc2nc(-c3ccccc3C(C)C)nc3ccoc23)ccc1-c1nc(C(F)(F)F)cn1C` [US20250289799, Example 82] the figure was 1.7 nM; with `COc1cc(-n2nc(C(F)(F)F)cc2C)ccc1CNc1nc(-c2ccccc2C(C)C)nc2ccoc12` [US20250289799, Example 83], 4.4 nM. In the case of `COc1cc(CNc2nc(-c3ccccc3C(C)C)nc3ccoc23)ccc1-n1nc(C(F)(F)F)cc1C` [US20250289799, Example 84], the IC50 turned out to be 9 nM. With `C#Cc1cnc(-c2ccccc2C(C)C)nc1NCc1ccc(-c2nc(C(F)(F)F)cn2C)cc1` [US20250289799, Example 85] the figure was 0.47 nM. `CC(C)c1ccccc1-c1ncc(OC(F)F)c(NCc2ccc(-c3nc(C(F)(F)F)cn3C)cc2)n1` [US20250289799, Example 86]: inhibition was half-maximal at 1.1 nM (IC50). Turning to `CC(C)c1ccccc1-c1ncc(N2CCOCC2)c(NCc2ccc(-c3nc(C(F)(F)F)cn3C)cc2)n1` [US20250289799, Example 87], the IC50 came out at 6.2 nM.

Consider `CC(C)c1ccccc1-c1ncc(N2CCN(C)CC2)c(NCc2ccc(-c3nc(C(F)(F)F)cn3C)cc2)n1` [US20250289799, Example 88], for which the half-maximal inhibitory concentration (IC50) was found to be 10 nM.

`COC(=O)Cc1cnc(-c2ccccc2C(C)C)nc1NCc1ccc(-c2nc(C(F)(F)F)cn2C)cc1` [US20250289799, Example 91] showed a half-maximal inhibitory concentration (IC50) of 1.3 nM. Regarding `COc1cnc(-c2c(OC)ncnc2C2CC2)nc1N(C)CC1CCN(c2nc(C(F)(F)F)cn2C)CC1` [US20250289799, Example 92], the IC50 worked out at 3.3 nM.

In turn, `COc1cnc(-c2c(OC)ncnc2C2CC2)nc1N(C)Cc1ccc(-c2nc(C(F)(F)F)cn2C(C)C)cc1` [US20250289799, Example 93] had a concentration for half-maximal inhibition (IC50) of 1.5 nM. For `COc1cnc(-c2c(OC)ncnc2C2CC2)nc1NCc1ccc(-c2ccccn2)cc1` [US20250289799, Example 94] the value was 6.5 nM.
